Laboratory results from US8440240B2, “Method for treating ocular demodex” (priority 2005, dated 2013).
Where “and” joins values, the source holds several entries; their conditions need not be identical. Equal entries are not always repeated.

Assays:
Demodex folliculorum [1] = conditions: Norn 1970; cited from earlier work
Demodex folliculorum [2] = test: In vitro killing: survival time of live adult demodex from epilated lashes in test solutions; conditions: for killing effect on Demodex in words (relative to TTO): in vitro; for ST: survival time of demodex: 150 = still alive (no effect)
Protocol: TT shampoo was from Kato Sales, Inc. (Altamonte Springs, Fla., USA). TTO was diluted with mineral oil into different concentrations.
Under the microscope, if the epilated lash contained live demodex, different solutions were added to the coverslip edge. The movement of demodex body and legs was continuously observed for 150 minutes. The survival time (ST) (Table 2 below) was counted from the time when the solution was added to the time when the movement ceased (See FIG. 1) The average ST tested for a given solution in a number of mites was used to compare the in vitro killing effect. If demodex remained alive at the end of 150 minutes, this value was denoted as no effect. Because demodex in an earlier life stage was more vulnerable, we only tested adult demodex that had 4 pairs of well developed legs and stumpy body. Because demodex buried in cylindrical dandruff (CD) might preclude the killing effect, we only tested demodex of which the whole body was fully exposed to the test solution.

For `c1ccccc1` [benzene], the “time to kill demodex” value (Demodex folliculorum [1]) is listed as “within several minutes”.
In the case of `C=C(C)[C@H]1CC=C(C)CC1` [(+)-Limonene, (R)-(+)-Limonene], the “Killing effect on Demodex (Time in minutes), Average” value (“Killing effect on Demodex … Average” below) (Demodex folliculorum [2]; 97%) is reported as 66.8 min and the “killing effect on Demodex in words (relative to TTO)” value (“killing effect … (relative to TTO)” for short) (Demodex folliculorum [2]) is reported as “not as effective as TTO”.
In the case of `CCOCC` [ether], the “time to kill demodex” value (Demodex folliculorum [1]) is given as “within several minutes”.
For `CCO` [Alc, alcohol, reference compound], the “ST: survival time of demodex” value (Demodex folliculorum [2]; 75% solution) is given as 150 min, the “ST: survival time of demodex” value (Demodex folliculorum [2]; 100% solution, adult mites, observed 150 min, mean±S.D.) is given as 3.9 ± 1.2 min and the “time to kill demodex” value (Demodex folliculorum [1]) is given as “within several minutes”.
For `CC1=CCC(O)(C(C)C)CC1` (centres unmarked) [Terpinen-4-ol], the “killing effect … (relative to TTO)” value (Demodex folliculorum [2]) was “active ingredient”.
In the case of “povidone iodine [PI, reference compound]”, the “ST: survival time of demodex” value (Demodex folliculorum [2]; 10% solution, observed 150 min) is reported as 150 min.
With `C=C(C)[C@H]1CC=C(C)C(=O)C1` [(+)-Carvone] the “Killing effect on Demodex … Average” value (Demodex folliculorum [2]; 25%) was 22.7 min, the “Killing effect on Demodex (Time in minutes), single mite” value (“Killing effect on Demodex … single mite” below) (Demodex folliculorum [2]; 25%) was 25 min and 20 min and 23 min and the “Killing effect on Demodex … Average” value (Demodex folliculorum [2]; 50%) was 11.6 min. For the same compound, the “Killing effect on Demodex … single mite” value (Demodex folliculorum [2]; 50%) was 13 min and 8 min and 10 min and 11 min and 16 min, the “Killing effect on Demodex … Average” value (Demodex folliculorum [2]; 100%) was 4.2 min and the “Killing effect on Demodex … single mite” value (Demodex folliculorum [2]; 100%) was 4 min and 5 min and 3 min. The “killing effect … (relative to TTO)” value (Demodex folliculorum [2]) was “as effective as TTO”.
For xylol, the “time to kill demodex” value (Demodex folliculorum [1]) is listed as “within several minutes”.
With `CC12CCC(CC1)C(C)(C)O2` [Eucalyptol] the “Killing effect on Demodex … Average” value (Demodex folliculorum [2]; concentration not given) was 36.8 min, the “Killing effect on Demodex … single mite” value (Demodex folliculorum [2]; concentration not given) was 30 min and 35 min and 40 min and 42 min and the “killing effect … (relative to TTO)” value (Demodex folliculorum [2]) was “not as effective as TTO”.
In the case of `CC[C@@H]1C(=O)OC[C@@H]1Cc1cncn1C` [Pilo, pilocarpine, reference compound], the “Killing effect on Demodex … Average” value (Demodex folliculorum [2]; 2%, 150 = no effect) is reported as 150 min, the “Killing effect on Demodex … single mite” value (Demodex folliculorum [2]; 2%, 150 = no effect) is reported as 150 min and the “ST: survival time of demodex” value (Demodex folliculorum [2]; 4% solution) is reported as 150 min. The “ST: survival time of demodex” value (Demodex folliculorum [2]; 4% solution, listed as Pilocarpine) was over 150 min, the “Killing effect on Demodex … Average” value (Demodex folliculorum [2]; 4%, 150 = no effect) was 150 min and the “Killing effect on Demodex … single mite” value (Demodex folliculorum [2]; 4%, 150 = no effect) was 150 min.
